The test system of this data set is lithium-pilocarpine treated rats. The data set can be described thus: Morris water maze using pilocarpine-induced status epilepticus (SE). It counts as in vivo. The text has this:
To assess spatial memory and learning in lithium-pilocarpine treated animals and to identify novel compounds that might ameliorate cognitive deficits and neuronal loss associated with pilocarpine-induced status epilepticus (SE). Morris water maze has been used extensively in the study of learning and memory. This test uses a round pool of water in which an escape platform is submerged beneath the surface. The task is to find the hidden platform using only extra maze visual cues (Morris, 1984). Learning can be assessed by quantifying the time that an animal takes to find the platform (latency) over a number of independent trials. […]
Twenty four hours prior to pilocarpine administration, rats were weighed and given lithium chloride (127 mg/kg; i.p.). On the next day, they received pilocarpine hydrochloride (50 mg/kg; i.p.) and were monitored carefully for behavioral seizures. […] All animals were observed and scored for seizure severity for an additional 1.5 hr. […] In our spatial learning protocol rats, received 4 training trials per day wherein the outcome measure evaluated was their ability to find the hidden platform. […] On each of the trials, rats were placed in the water facing the wall at one of the 4 randomly determined starting locations (north, west, east or south) and allowed 120 sec to find the platform. […]

Turning to `C[C@H](OC(N)=O)[C@@H](O)c1ccccc1Cl` [Compound 1, 1-(2-chlorophenyl)-(S)-1-hydroxypropyl-(S)-2-carbamate], the “average time to find the escape platform (latency)” value (65 mg/kg i.p. 15 minutes after the first stage 3 seizure, vs pilocarpine alone group, FIG. 3) is given as “significant difference in the Pilo+Compound 1 group as compared to the pilocarpine alone group”. The mortality result (125 mg/kg administered 30 min after the first convulsive seizure) is given as “death of all animals”.

The record behind these values is patent publication US9566261B2 (priority 2013, dated 2017).
